Results reported in patent publication US8802597B2, “Herbicidal pyrimidines” (E I du Pont de Nemours and Company, priority 2003, dated 2014).

What was measured:
Type in all cases: in vivo
[1] = system: blackgrass (Alopecurus myosuroides); assay: Test C postemergence; settings: for Plant response rating, Blackgrass: scale 0 to 100
Summary of the method: (§1)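 Injury scored visually 12–14 days after application on 0–100 scale (100 = complete control), relative to controls. Compounds, formulated with surfactant in non-phytotoxic solvent, applied to soil at planting (pre) or to 1- to 4-leaf plants 2–18 cm tall (post) in greenhouse.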

[2] = system: green foxtail (Setaria viridis); assay: Test C postemergence; settings: for Plant response rating, Foxtail, Green: scale 0 to 100
Summary of the method: as §1

[3] = system: wheat (Triticum aestivum); assay: Test C postemergence; settings: for Plant response rating, Wheat: scale 0 to 100
Summary of the method: as §1

[4] = system: Italian ryegrass (Lolium multiflorum); assay: Test C postemergence; settings: for Plant response rating, Ryegrass, Italian: scale 0 to 100
Summary of the method: as §1

[5] = system: windgrass (Apera spica-venti); assay: Test C postemergence; settings: for Plant response rating, Windgrass: scale 0 to 100
Summary of the method: as §1

[6] = system: winter barley (Hordeum vulgare); assay: Test C postemergence; settings: for Plant response rating, Barley: scale 0 to 100
Summary of the method: as §1

[7] = system: downy brome (Bromus tectorum); assay: Test C postemergence; settings: for Plant response rating, Bromegrass, Downy: scale 0 to 100
Summary of the method: as §1

wild oat (Avena fatua) = assay: Test C postemergence; settings: for Plant response rating, Oat, Wild: scale 0 to 100
Summary of the method: as §1

[8] = system: canarygrass (Phalaris minor); assay: Test C postemergence; settings: for Plant response rating, Canarygrass: scale 0 to 100
Summary of the method: as §1

[9] = system: late watergrass (Echinochloa oryzicola); assay: Test E flooded paddy water application; settings: Flood, 21 days, scale 0 to 100 (0 no effect, 100 complete control)
Summary of the method: (§2)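 Weeds sown in sterilized Tama silt loam (2.6% organic matter), greenhouse 29.5/26.7° C, 16-h photoperiod; at 2.0–2.5-leaf stage pots flooded to 3 cm and compound added to paddy water. Visual rating vs untreated controls after 21 days, 0 (no effect) to 100 (complete control).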

[10] = system: smallflower umbrella sedge (Cyperus difformis); assay: Test E flooded paddy water application; settings: Flood, 21 days, scale 0 to 100 (0 no effect, 100 complete control)
Summary of the method: as §2

[11] = 62 g ai/ha, scale 0 to 100 (0 no effect, 100 complete control)
[12] = 125 g ai/ha, scale 0 to 100 (0 no effect, 100 complete control)

CNN=Cc1nc(C2CC2)nc(N)c1Br [Compound 49]
Blackgrass plant response rating [1, 11]: 40
Blackgrass plant response rating [1, 12]: 40
Plant response rating, Blackgrass ([1]; 250 g ai/ha): 50
Plant response rating, Blackgrass ([1]; 500 g ai/ha): 60
Foxtail, Green plant response rating [2, 11]: 0
Foxtail, Green plant response rating [2, 12]: 20
Plant response rating, Foxtail, Green ([2]; 250 g ai/ha): 50
Plant response rating, Foxtail, Green ([2]; 500 g ai/ha): 60
Wheat plant response rating [3, 11]: 20
Wheat plant response rating [3, 12]: 40
Plant response rating, Wheat ([3]; 250 g ai/ha): 50
Plant response rating, Wheat ([3]; 500 g ai/ha): 60
Ryegrass, Italian plant response rating [4, 11]: 30
Ryegrass, Italian plant response rating [4, 12]: 30
Plant response rating, Ryegrass, Italian ([4]; 250 g ai/ha): 50
Plant response rating, Ryegrass, Italian ([4]; 500 g ai/ha): 50
Windgrass plant response rating [5, 11]: 40
Windgrass plant response rating [5, 12]: 40
Plant response rating, Windgrass ([5]; 250 g ai/ha): 60
Plant response rating, Windgrass ([5]; 500 g ai/ha): 60
Barley plant response rating [6, 11]: 0
Barley plant response rating [6, 12]: 20
Plant response rating, Barley ([6]; 250 g ai/ha): 30
Plant response rating, Barley ([6]; 500 g ai/ha): 40
Bromegrass, Downy plant response rating [7, 11]: 0
Bromegrass, Downy plant response rating [7, 12]: 0
Plant response rating, Bromegrass, Downy ([7]; 250 g ai/ha): 0
Plant response rating, Bromegrass, Downy ([7]; 500 g ai/ha): 30
Oat, Wild plant response rating (wild oat (Avena fatua); [11]): 30
Oat, Wild plant response rating (wild oat (Avena fatua); [12]): 40
Plant response rating, Oat, Wild (wild oat (Avena fatua); 250 g ai/ha): 40
Plant response rating, Oat, Wild (wild oat (Avena fatua); 500 g ai/ha): 60
Canarygrass plant response rating [8, 11]: 0
Canarygrass plant response rating [8, 12]: 20
Plant response rating, Canarygrass ([8]; 250 g ai/ha): 30
Plant response rating, Canarygrass ([8]; 500 g ai/ha): 40

CCOC(=O)c1nc(-c2ccc(Cl)cc2)nc(N)c1Cl [Compound 64, ethyl 6-amino-5-chloro-2-(4-chlorophenyl)-4-pyrimidinecarboxylate]
Watergrass, Late plant response rating ([9]; 32 g ai/ha): 0
Watergrass, Late plant response rating ([9]; 64 g ai/ha): 0
Watergrass, Late plant response rating ([9]; 125 g ai/ha): 20
Watergrass, Late plant response rating ([9]; 250 g ai/ha): 20
Plant response rating, Watergrass, Late ([9]; 16 g ai/ha): 0
Sedge, Umbrella plant response rating ([10]; 32 g ai/ha): 80
Sedge, Umbrella plant response rating ([10]; 64 g ai/ha): 85
Sedge, Umbrella plant response rating ([10]; 125 g ai/ha): 100
Sedge, Umbrella plant response rating ([10]; 250 g ai/ha): 100
Plant response rating, Sedge, Umbrella ([10]; 16 g ai/ha): 65
Plant response rating (scale of 0 to 100), Blackgrass ([1]; 31 g ai/ha): 40
Plant response rating, Blackgrass ([1]; 250 g ai/ha): 50
pest or weed control at 62 g/ha ([1]; Alopecurus myosuroides, post-emergence, 62 g ai/ha, scale 0 to 100 (0 no effect, 100 complete control), read-out: Blackgrass plant response rating): 45%
pest or weed control at 125 g/ha ([1]; Alopecurus myosuroides, post-emergence, 125 g ai/ha, scale 0 to 100 (0 no effect, 100 complete control), read-out: Blackgrass plant response rating): 50%
Plant response rating (scale of 0 to 100), Foxtail, Green ([2]; 31 g ai/ha): 0
Plant response rating, Foxtail, Green ([2]; 250 g ai/ha): 45
pest or weed control at 62 g/ha ([2]; Setaria viridis, post-emergence, 62 g ai/ha, scale 0 to 100 (0 no effect, 100 complete control), read-out: Foxtail, Green plant response rating): 30%
pest or weed control at 125 g/ha ([2]; Setaria viridis, post-emergence, 125 g ai/ha, scale 0 to 100 (0 no effect, 100 complete control), read-out: Foxtail, Green plant response rating): 40%
Plant response rating (scale of 0 to 100), Wheat ([3]; 31 g ai/ha): 0
Plant response rating, Wheat ([3]; 250 g ai/ha): 10
plant injury at 62 g/ha ([3]; Triticum aestivum, post-emergence, 62 g ai/ha, scale 0 to 100 (0 no effect, 100 complete control), read-out: Wheat plant response rating): 0%
plant injury at 125 g/ha ([3]; Triticum aestivum, post-emergence, 125 g ai/ha, scale 0 to 100 (0 no effect, 100 complete control), read-out: Wheat plant response rating): 10%
Plant response rating (scale of 0 to 100), Ryegrass, Italian ([4]; 31 g ai/ha): 5
Plant response rating, Ryegrass, Italian ([4]; 250 g ai/ha): 45
pest or weed control at 62 g/ha ([4]; Lolium multiflorum, post-emergence, 62 g ai/ha, scale 0 to 100 (0 no effect, 100 complete control), read-out: Ryegrass, Italian plant response rating): 30%
pest or weed control at 125 g/ha ([4]; Lolium multiflorum, post-emergence, 125 g ai/ha, scale 0 to 100 (0 no effect, 100 complete control), read-out: Ryegrass, Italian plant response rating): 35%
Plant response rating (scale of 0 to 100), Windgrass ([5]; 31 g ai/ha): 40
Plant response rating, Windgrass ([5]; 250 g ai/ha): 60
pest or weed control at 62 g/ha ([5]; Apera spica-venti, post-emergence, 62 g ai/ha, scale 0 to 100 (0 no effect, 100 complete control), read-out: Windgrass plant response rating): 55%
pest or weed control at 125 g/ha ([5]; Apera spica-venti, post-emergence, 125 g ai/ha, scale 0 to 100 (0 no effect, 100 complete control), read-out: Windgrass plant response rating): 55%
Plant response rating (scale of 0 to 100), Barley ([6]; 31 g ai/ha): 20
Plant response rating, Barley ([6]; 250 g ai/ha): 100
plant injury at 62 g/ha ([6]; Hordeum vulgare, post-emergence, 62 g ai/ha, scale 0 to 100 (0 no effect, 100 complete control), read-out: Barley plant response rating): 20%
Plant response rating (scale of 0 to 100), Bromegrass, Downy ([7]; 31 g ai/ha): 10
Plant response rating, Bromegrass, Downy ([7]; 250 g ai/ha): 20
pest or weed control at 62 g/ha ([7]; Bromus tectorum, post-emergence, 62 g ai/ha, scale 0 to 100 (0 no effect, 100 complete control), read-out: Bromegrass, Downy plant response rating): 15%
pest or weed control at 125 g/ha ([7]; Bromus tectorum, post-emergence, 125 g ai/ha, scale 0 to 100 (0 no effect, 100 complete control), read-out: Bromegrass, Downy plant response rating): 20%
Plant response rating (scale of 0 to 100), Oat, Wild (wild oat (Avena fatua); 31 g ai/ha): 5
Plant response rating, Oat, Wild (wild oat (Avena fatua); 250 g ai/ha): 10
pest or weed control at 62 g/ha (wild oat (Avena fatua); Avena fatua, post-emergence, 62 g ai/ha, scale 0 to 100 (0 no effect, 100 complete control), read-out: Oat, Wild plant response rating): 5%
pest or weed control at 125 g/ha (wild oat (Avena fatua); Avena fatua, post-emergence, 125 g ai/ha, scale 0 to 100 (0 no effect, 100 complete control), read-out: Oat, Wild plant response rating): 10%
Plant response rating (scale of 0 to 100), Canarygrass ([8]; 31 g ai/ha): 5
Plant response rating, Canarygrass ([8]; 250 g ai/ha): 10
pest or weed control at 62 g/ha ([8]; Phalaris minor, post-emergence, 62 g ai/ha, scale 0 to 100 (0 no effect, 100 complete control), read-out: Canarygrass plant response rating): 5%
pest or weed control at 125 g/ha ([8]; Phalaris minor, post-emergence, 125 g ai/ha, scale 0 to 100 (0 no effect, 100 complete control), read-out: Canarygrass plant response rating): 10%
